Assay [1] has as its target recombinant human PDE5 (Homo sapiens, UniProt O76074). Description: PDE5 inhibition, IMAP FP phosphodiesterase assay. It is filed as biochemical. To be noted: for inhibition at 10 µM: read-out: PDE5 % inhibition at 10 μm.
Assay [2] has as its target PDE1A (Homo sapiens, UniProt P54750). Kind of assay: PDE selectivity array, PDE1A with cGMP as substrate. To be noted: for inhibition of cGMP hydrolysis by PDE1A (in words): at concentrations up to 50 μM.
For assay [3], the target named is PDE3A (Homo sapiens, UniProt Q14432). Description: PDE selectivity array, PDE3A with cGMP as substrate. To be noted: for inhibition of cGMP hydrolysis by PDE3A (in words): at concentrations up to 50 μM.
PDE3A, sequence (Q14432 whole entry, species assumed): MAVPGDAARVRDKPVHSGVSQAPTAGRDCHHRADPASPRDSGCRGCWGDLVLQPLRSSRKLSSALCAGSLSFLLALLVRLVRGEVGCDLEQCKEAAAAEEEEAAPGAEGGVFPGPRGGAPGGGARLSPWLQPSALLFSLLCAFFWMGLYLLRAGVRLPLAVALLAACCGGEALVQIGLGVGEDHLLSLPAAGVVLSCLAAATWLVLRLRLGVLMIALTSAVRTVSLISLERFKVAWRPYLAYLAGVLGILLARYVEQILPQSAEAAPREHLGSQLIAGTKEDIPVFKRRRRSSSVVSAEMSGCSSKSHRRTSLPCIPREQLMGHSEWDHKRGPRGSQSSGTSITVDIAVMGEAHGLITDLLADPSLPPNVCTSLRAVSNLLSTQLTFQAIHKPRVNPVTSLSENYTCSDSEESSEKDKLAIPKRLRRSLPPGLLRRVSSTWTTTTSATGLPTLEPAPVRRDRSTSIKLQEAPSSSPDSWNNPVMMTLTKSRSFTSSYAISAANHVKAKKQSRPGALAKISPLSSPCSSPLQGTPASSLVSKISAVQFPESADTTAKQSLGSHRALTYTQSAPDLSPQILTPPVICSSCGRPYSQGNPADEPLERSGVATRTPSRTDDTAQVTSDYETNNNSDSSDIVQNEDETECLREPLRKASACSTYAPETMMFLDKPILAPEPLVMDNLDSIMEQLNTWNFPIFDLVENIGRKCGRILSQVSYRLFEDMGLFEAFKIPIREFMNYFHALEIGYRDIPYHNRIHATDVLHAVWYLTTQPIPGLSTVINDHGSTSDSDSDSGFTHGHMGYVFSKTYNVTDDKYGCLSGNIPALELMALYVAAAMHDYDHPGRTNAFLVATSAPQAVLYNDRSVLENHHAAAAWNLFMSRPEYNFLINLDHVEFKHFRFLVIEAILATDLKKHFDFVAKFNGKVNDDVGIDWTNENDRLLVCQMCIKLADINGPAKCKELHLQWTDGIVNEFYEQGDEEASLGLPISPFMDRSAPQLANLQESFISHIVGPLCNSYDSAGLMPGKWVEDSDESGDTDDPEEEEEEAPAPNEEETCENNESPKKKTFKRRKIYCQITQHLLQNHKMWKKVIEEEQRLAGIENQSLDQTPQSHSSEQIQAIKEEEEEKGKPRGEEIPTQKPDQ
The target of assay [4] is PDE10A (Homo sapiens, UniProt Q9Y233). Kind of assay: PDE selectivity array, PDE10A with cGMP as substrate. As to conditions: for inhibition of cGMP hydrolysis by PDE10A (in words): at concentrations up to 50 μM.
PDE10A, sequence (Q9Y233 whole entry, species assumed): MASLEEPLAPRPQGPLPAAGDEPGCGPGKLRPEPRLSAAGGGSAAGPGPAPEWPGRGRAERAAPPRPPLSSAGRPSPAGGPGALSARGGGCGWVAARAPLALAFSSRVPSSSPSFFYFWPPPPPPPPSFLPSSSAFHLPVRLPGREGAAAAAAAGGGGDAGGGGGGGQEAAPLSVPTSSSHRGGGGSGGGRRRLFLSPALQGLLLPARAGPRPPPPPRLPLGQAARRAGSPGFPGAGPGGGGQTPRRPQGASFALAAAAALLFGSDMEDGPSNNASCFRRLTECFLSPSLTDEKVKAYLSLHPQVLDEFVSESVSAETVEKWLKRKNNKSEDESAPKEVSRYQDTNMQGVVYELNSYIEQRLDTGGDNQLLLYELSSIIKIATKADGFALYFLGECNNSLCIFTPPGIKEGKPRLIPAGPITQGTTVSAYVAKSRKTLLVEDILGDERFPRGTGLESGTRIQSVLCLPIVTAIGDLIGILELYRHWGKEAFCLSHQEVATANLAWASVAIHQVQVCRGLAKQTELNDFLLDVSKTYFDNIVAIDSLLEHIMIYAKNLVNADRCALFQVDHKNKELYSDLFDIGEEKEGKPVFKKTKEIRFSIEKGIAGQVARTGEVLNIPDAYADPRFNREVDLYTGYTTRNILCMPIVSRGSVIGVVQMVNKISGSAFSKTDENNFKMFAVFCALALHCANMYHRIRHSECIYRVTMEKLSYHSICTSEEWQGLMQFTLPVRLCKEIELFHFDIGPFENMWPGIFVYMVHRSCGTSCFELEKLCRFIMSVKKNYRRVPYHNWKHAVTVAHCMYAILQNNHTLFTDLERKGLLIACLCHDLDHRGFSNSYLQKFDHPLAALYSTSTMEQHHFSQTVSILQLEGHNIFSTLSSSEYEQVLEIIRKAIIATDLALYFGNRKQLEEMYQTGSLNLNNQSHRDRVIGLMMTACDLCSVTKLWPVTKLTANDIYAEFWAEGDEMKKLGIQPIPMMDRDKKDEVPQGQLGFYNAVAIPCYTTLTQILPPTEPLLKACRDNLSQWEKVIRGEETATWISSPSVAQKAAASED
For assay [5], the target named is PDE9A (Homo sapiens, UniProt O76083). Kind of assay: PDE selectivity array, PDE9A with cGMP as substrate. As to conditions: for inhibition of cGMP hydrolysis by PDE9A (in words): at concentrations up to 50 μM.
Assay [6] concerns the target PDE11A (Homo sapiens, UniProt Q9HCR9). Description: PDE selectivity array, PDE11A with cGMP and cAMP as substrates. To be noted: for IC50: 10 concentrations, double replicates.
The target in assay [7] is PDE2A (Homo sapiens, UniProt O00408). Description: PDE selectivity array, PDE2A with cGMP as substrate. As to conditions: for inhibition of cGMP hydrolysis by PDE2A (in words): at concentrations up to 50 μM.
PDE2A, sequence (O00408 whole entry, species assumed): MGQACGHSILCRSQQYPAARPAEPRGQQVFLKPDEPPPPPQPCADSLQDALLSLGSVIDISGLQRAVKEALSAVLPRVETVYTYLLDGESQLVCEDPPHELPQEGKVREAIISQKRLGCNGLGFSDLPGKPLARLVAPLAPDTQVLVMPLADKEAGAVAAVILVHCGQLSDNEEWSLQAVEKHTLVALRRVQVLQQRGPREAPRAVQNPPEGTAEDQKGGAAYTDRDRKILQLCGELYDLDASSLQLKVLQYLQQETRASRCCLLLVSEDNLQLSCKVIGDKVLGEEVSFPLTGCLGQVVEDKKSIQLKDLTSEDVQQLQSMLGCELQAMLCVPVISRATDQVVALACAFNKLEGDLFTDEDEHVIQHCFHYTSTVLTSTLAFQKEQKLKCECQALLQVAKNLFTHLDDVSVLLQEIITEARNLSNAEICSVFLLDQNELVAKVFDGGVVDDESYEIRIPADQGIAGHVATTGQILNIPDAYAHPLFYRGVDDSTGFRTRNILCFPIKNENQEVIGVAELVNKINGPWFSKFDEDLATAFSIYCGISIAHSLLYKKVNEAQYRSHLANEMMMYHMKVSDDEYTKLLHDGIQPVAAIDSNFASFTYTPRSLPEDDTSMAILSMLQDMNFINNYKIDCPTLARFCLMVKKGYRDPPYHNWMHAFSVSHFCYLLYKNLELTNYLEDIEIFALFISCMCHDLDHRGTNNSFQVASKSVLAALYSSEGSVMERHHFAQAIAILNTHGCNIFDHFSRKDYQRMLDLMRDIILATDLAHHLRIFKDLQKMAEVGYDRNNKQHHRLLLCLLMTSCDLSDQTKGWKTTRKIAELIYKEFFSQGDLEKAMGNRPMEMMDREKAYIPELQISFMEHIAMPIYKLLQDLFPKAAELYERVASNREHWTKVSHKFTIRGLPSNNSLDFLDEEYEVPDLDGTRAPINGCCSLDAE
Setting [8] is: IC50 PDE11A cAMP, substrate cAMP.
Where [9] appears, read: IC50 PDE11A cGMP, substrate cGMP.

Experimental findings from paper PMC4980837 (Archiv der Pharmazie, 2013) are described below.

Where two headings read alike, the source gives them in different places. Some results are limits rather than exact numbers.

PDE1A, sequence (P54750 whole entry, species assumed): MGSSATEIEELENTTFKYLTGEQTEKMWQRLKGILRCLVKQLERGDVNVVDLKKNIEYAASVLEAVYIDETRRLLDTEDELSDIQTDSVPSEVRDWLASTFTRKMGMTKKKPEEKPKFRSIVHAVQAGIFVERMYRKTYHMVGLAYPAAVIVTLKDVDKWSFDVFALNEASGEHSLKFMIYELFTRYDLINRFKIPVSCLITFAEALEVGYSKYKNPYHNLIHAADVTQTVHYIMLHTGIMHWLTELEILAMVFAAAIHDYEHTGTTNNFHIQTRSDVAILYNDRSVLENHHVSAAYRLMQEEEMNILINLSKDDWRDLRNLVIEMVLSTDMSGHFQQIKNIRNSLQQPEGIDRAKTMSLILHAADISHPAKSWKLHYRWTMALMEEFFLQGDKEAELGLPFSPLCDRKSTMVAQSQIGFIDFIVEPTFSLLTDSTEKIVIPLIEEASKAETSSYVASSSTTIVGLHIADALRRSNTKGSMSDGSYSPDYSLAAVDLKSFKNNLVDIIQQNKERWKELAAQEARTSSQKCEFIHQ
PDE11A, sequence (Q9HCR9 whole entry, species assumed): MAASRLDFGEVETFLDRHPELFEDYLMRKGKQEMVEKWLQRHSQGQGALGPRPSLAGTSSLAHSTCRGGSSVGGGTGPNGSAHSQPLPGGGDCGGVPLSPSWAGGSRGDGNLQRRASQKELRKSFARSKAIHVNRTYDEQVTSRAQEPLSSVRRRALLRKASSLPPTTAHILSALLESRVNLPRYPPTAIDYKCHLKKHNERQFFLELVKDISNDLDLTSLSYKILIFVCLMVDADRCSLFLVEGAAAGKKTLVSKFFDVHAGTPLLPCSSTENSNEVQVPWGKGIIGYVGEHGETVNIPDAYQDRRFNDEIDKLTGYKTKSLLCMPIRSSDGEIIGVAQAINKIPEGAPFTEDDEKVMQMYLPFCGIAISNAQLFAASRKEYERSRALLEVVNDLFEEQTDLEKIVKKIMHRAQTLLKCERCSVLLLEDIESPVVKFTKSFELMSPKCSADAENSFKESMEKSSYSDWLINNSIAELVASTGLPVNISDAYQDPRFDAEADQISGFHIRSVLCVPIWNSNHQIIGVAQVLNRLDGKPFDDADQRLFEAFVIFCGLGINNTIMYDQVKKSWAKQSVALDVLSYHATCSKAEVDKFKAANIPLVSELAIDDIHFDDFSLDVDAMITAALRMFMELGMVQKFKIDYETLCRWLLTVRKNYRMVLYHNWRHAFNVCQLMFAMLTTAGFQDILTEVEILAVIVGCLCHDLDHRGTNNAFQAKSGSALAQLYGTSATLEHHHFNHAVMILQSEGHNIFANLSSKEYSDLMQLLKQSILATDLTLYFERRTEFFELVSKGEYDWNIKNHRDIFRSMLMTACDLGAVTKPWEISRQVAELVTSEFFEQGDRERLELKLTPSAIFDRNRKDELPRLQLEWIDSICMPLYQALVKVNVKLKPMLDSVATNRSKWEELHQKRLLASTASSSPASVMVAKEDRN

As usually defined, the inhibition is the drop in the measured response relative to a control, in per cent. Turning to `COC(=O)[C@H]1Cc2c([nH]c3ccccc23)[C@@H](c2ccc(Br)s2)N1` [Compound 1, (1S,3R) Methyl 1-(5-bromo-2-thienyl)-2,3,4,9-tetrahydro-1H-β-carboline-3-carboxylate], the inhibition at 10 µM in assay [1] is less than 60%.
As to `COC(=O)[C@H]1Cc2c([nH]c3ccccc23)[C@H](c2ccc(Br)s2)N1` [Compound 2, (1R,3R) Methyl 1-(5-bromo-2-thienyl)-2,3,4,9-tetrahydro-1H-β-carboline-3-carboxylate], in assay [1], the inhibition at 10 µM was less than 60%.
In the case of `COC(=O)[C@@H]1Cc2c([nH]c3ccccc23)[C@H](c2ccc(Br)s2)N1` [Compound 3, (1R,3S) Methyl 1-(5-bromo-2-thienyl)-2,3,4,9-tetrahydro-1H-β-carboline-3-carboxylate], the inhibition at 10 µM in assay [1] is less than 60%.
Same read-out and setting: for `COC(=O)[C@@H]1Cc2c([nH]c3ccccc23)[C@@H](c2ccc(Br)s2)N1` [Compound 4, (1S,3S) Methyl 1-(5-bromo-2-thienyl)-2,3,4,9-tetrahydro-1H-β-carboline-3-carboxylate] the value was less than 60%.
What is called IC50 is the concentration that inhibits the measured activity by half. Turning to `CCN1C(=O)[C@@H]2Cc3c([nH]c4ccccc34)[C@@H](c3ccc(Br)s3)N2C1=O` [Compound 8, (5S,11aS) 5-(5-Bromo-2-thienyl)-2-ethyl-5,6,11,11a-tetrahydro-1H-imidazo[1′,5 ′:1,6]pyrido[3,4-b]indole-1,3(2H)-dione], the IC50 in assay [2] was greater than 50 µM; in assay [3], greater than 50 µM; in assay [4], greater than 50 µM; in assay [1] (read-out: PDE5 inhibition IC50, 10 concentrations, each with double replicates) it was 0.16 µM; in assay [5], greater than 50 µM; in assay [6] (setting [8]), 11.3 µM. The IC50 in assay [6] (setting [9]) is 7.8 µM; in assay [7], greater than 50 µM. The “inhibition of cGMP hydrolysis by PDE1A (in words)” value (shortened to “inhibition … by PDE1A (in words)”) in assay [2] is reported as “lacked the ability to inhibit cGMP hydrolysis”. Further, in assay [3], the “inhibition of cGMP hydrolysis by PDE3A (in words)” value (“inhibition … by PDE3A (in words)” below) is “lacked the ability to inhibit cGMP hydrolysis”. Also, in assay [4], the “inhibition of cGMP hydrolysis by PDE10A (in words)” value (from here on “inhibition … by PDE10A (in words)”) is listed as “lacked the ability to inhibit cGMP hydrolysis”. The “inhibition of cGMP hydrolysis by PDE9A (in words)” value (“inhibition … by PDE9A (in words)” below) in assay [5] is on record as “lacked the ability to inhibit cGMP hydrolysis”. In addition, in assay [7], the “inhibition of cGMP hydrolysis by PDE2A (in words)” value (from here on “inhibition … by PDE2A (in words)”) is “lacked the ability to inhibit cGMP hydrolysis”.
Consider `CCCCN1C(=O)[C@H]2Cc3c([nH]c4ccccc34)[C@@H](c3ccc(Br)s3)N2C1=O` [Compound 9, (5S,11aR) 5-(5-Bromo-2-thienyl)-2-butyl-5,6,11,11a-tetrahydro-1H-imidazo[1′,5 ′:1,6]pyrido[3,4-b]indole-1,3(2H)-dione], for which the IC50 is greater than 50 µM in assay [2]; greater than 50 µM in assay [3]; greater than 50 µM in assay [4]; 0.17 µM in assay [1]; greater than 50 µM in assay [5]; 4 µM in assay [6] (setting [8]). Besides, the IC50 in assay [6] (setting [9]) was 2.3 µM; in assay [7], greater than 50 µM. The “inhibition … by PDE1A (in words)” value in assay [2] was “lacked the ability to inhibit cGMP hydrolysis”. The “inhibition … by PDE3A (in words)” value in assay [3] is “lacked the ability to inhibit cGMP hydrolysis”. The “inhibition … by PDE10A (in words)” value in assay [4] is reported as “lacked the ability to inhibit cGMP hydrolysis”. Also, the inhibition at 10 µM in assay [1] came out at 99%. For the same compound, the “inhibition … by PDE9A (in words)” value in assay [5] is on record as “lacked the ability to inhibit cGMP hydrolysis”. Also, the “Selectivity index IC50 (PDE11A/PDE5A) cGMP/cGMP” value in assay [6] (ratio of IC50 PDE11A to PDE5A, cGMP as substrate) is on record as 14. The “inhibition … by PDE2A (in words)” value in assay [7] was “lacked the ability to inhibit cGMP hydrolysis”.
Turning to `CCCCN1C(=O)[C@H]2Cc3c([nH]c4ccccc34)[C@H](c3ccc(Br)s3)N2C1=O` [Compound 10, (5R,11aR) 5-(5-Bromo-2-thienyl)-2-butyl-5,6,11,11a-tetrahydro-1H-imidazo[1′,5 ′:1,6]pyrido[3,4-b]indole-1,3(2H)-dione], the inhibition at 10 µM in assay [1] is less than 60%.
On the same count and under the same terms, for `CCCCN1C(=O)[C@@H]2Cc3c([nH]c4ccccc34)[C@H](c3ccc(Br)s3)N2C1=O` [Compound 11, (5R,11aS) 5-(5-Bromo-2-thienyl)-2-butyl-5,6,11,11a-tetrahydro-1H-imidazo[1′,5 ′:1,6]pyrido[3,4-b]indole-1,3(2H)-dione] the value was less than 60%.
As to `CCCCN1C(=O)[C@@H]2Cc3c([nH]c4ccccc34)[C@@H](c3ccc(Br)s3)N2C1=O` [Compound 12, (5S,11aS) 5-(5-Bromo-2-thienyl)-2-butyl-5,6,11,11a-tetrahydro-1H-imidazo[1′,5 ′:1,6]pyrido[3,4-b]indole-1,3(2H)-dione], in assay [1], the IC50 came to 0.47 µM and the inhibition at 10 µM was 92%.
For `CC(C)(C)N1C(=O)[C@H]2Cc3c([nH]c4ccccc34)[C@@H](c3ccc(Br)s3)N2C1=O` [Compound 13, (5S,11aR) 5-(5-Bromo-2-thienyl)-2-tert-butyl-5,6,11,11a-tetrahydro-1H-imidazo[1′,5 ′:1,6]pyrido[3,4-b]indole-1,3(2H)-dione], in assay [1], the 50% inhibitory concentration (IC50) stood at 0.39 µM and the inhibition at 10 µM stood at 97%.
As to `CC(C)(C)N1C(=O)[C@H]2Cc3c([nH]c4ccccc34)[C@H](c3ccc(Br)s3)N2C1=O` [Compound 14, (5R,11aR) 5-(5-Bromo-2-thienyl)-2-tert-butyl-5,6,11,11a-tetrahydro-1H-imidazo[1′,5 ′:1,6]pyrido[3,4-b]indole-1,3(2H)-dione], the inhibition at 10 µM in assay [1] is less than 60%.
On the same count and under the same terms, to `CC(C)(C)N1C(=O)[C@@H]2Cc3c([nH]c4ccccc34)[C@H](c3ccc(Br)s3)N2C1=O` [Compound 15, (5R,11aS) 5-(5-Bromo-2-thienyl)-2-tert-butyl-5,6,11,11a-tetrahydro-1H-imidazo[1′,5 ′:1,6] pyrido[3,4-b]indole-1,3(2H)-dione] belongs less than 60%.
For the compound `CC(C)(C)N1C(=O)[C@@H]2Cc3c([nH]c4ccccc34)[C@@H](c3ccc(Br)s3)N2C1=O` [Compound 16, (5S,11aS) 5-(5-Bromo-2-thienyl)-2-tert-butyl-5,6,11,11a-tetrahydro-1H-imidazo[1′,5 ′:1,6]pyrido[3,4-b]indole-1,3(2H)-dione], the IC50 in assay [1] came out at 1 µM.
As for `C=CCN1C(=O)[C@H]2Cc3c([nH]c4ccccc34)[C@@H](c3ccc(Br)s3)N2C1=O` [Compound 17, (5S,11aR) 5-(5-Bromo-2-thienyl)-2-allyl-5,6,11,11a-tetrahydro-1H-imidazo[1′,5 ′:1,6]pyrido[3,4-b]indole-1,3(2H)-dione], in assay [1], the IC50 was determined as 0.29 µM.
Still for that read-out and setting: to `C=CCN1C(=O)[C@H]2Cc3c([nH]c4ccccc34)[C@H](c3ccc(Br)s3)N2C1=O` [Compound 18, (5R,11aR) 5-(5-Bromo-2-thienyl)-2-allyl-5,6,11,11a-tetrahydro-1H-imidazo[1′,5 ′:1,6]pyrido[3,4-b]indole-1,3(2H)-dione] belongs 5.4 µM.
Take `C=CCN1C(=O)[C@@H]2Cc3c([nH]c4ccccc34)[C@H](c3ccc(Br)s3)N2C1=O` [Compound 19, (5R,11aS) 5-(5-Bromo-2-thienyl)-2-allyl-5,6,11,11a-tetrahydro-1H-imidazo[1′,5 ′:1,6]pyrido[3,4-b]indole-1,3(2H)-dione]: the inhibition at 10 µM in assay [1] is less than 60%.
In the case of `C=CCN1C(=O)[C@@H]2Cc3c([nH]c4ccccc34)[C@@H](c3ccc(Br)s3)N2C1=O` [Compound 20, (5S,11aS) 5-(5-Bromo-2-thienyl)-2-allyl-5,6,11,11a-tetrahydro-1H-imidazo[1′,5 ′:1,6]pyrido[3,4-b]indole-1,3(2H)-dione], in assay [1], the IC50 turned out to be 0.32 µM and the inhibition at 10 µM was determined as 97%.
For `CCN1CC(=O)N2[C@H](c3ccc(Br)s3)c3[nH]c4ccccc4c3C[C@@H]2C1=O` [Compound 23, (6S,12aR) 6-(5-Bromo-2-thienyl)-2-ethyl-2,3,6,7,12,12a-hexahydropyrazino[1′,2 ′:1,6]pyrido[3,4-b]indole-1,4-dione], in assay [1], the IC50 turned out to be 1.71 µM and the inhibition at 10 µM was 81%.
For the compound `CCN1CC(=O)N2[C@H](c3ccc(Br)s3)c3[nH]c4ccccc4c3C[C@H]2C1=O` [Compound 24, (6S,12aS) 6-(5-Bromo-2-thienyl)-2-ethyl-2,3,6,7,12,12a-hexahydropyrazino[1′,2 ′:1,6]pyrido[3,4-b]indole-1,4-dione], in assay [1], the IC50 is 1 µM and the inhibition at 10 µM amounted to 87%.
Regarding `COC(=O)c1cc2c([nH]c3ccccc32)c(-c2ccc(Br)s2)n1` [Compound 25, Methyl 1-(5-bromo-2-thienyl)-β-carboline-3-carboxylate], the “PDE5 inhibition (in words)” value in assay [1] (SAR statement in text) is “no PDE5 inhibition”. In addition, the inhibition at 10 µM in assay [1] is less than 60%.
Regarding `CN1CC(=O)N2[C@H](c3ccc4c(c3)OCO4)c3[nH]c4ccccc4c3C[C@@H]2C1=O` [Tadalafil, tadalafil, reference compound], in assay [2], the IC50 was greater than 50 µM and the “inhibition … by PDE1A (in words)” value is listed as “lacked the ability to inhibit cGMP hydrolysis”. Further, in assay [3], the IC50 was greater than 50 µM and the “inhibition … by PDE3A (in words)” value is on record as “lacked the ability to inhibit cGMP hydrolysis”. Moreover, in assay [4], the IC50 was greater than 50 µM and the “inhibition … by PDE10A (in words)” value is reported as “lacked the ability to inhibit cGMP hydrolysis”. In assay [5], the IC50 is greater than 50 µM and the “inhibition … by PDE9A (in words)” value was “lacked the ability to inhibit cGMP hydrolysis”. Moreover, in assay [7], the IC50 was greater than 50 µM and the “inhibition … by PDE2A (in words)” value is reported as “lacked the ability to inhibit cGMP hydrolysis”.
